Results reported in patent US20240173289A1, “USE OF OXYMETHYL-MODIFIED DERIVATIVE OF QUERCETIN IN PREPARATION OF DRUG FOR INHIBITING TUMOR CELL PROLIFERATION” (ZHEJIANG UNIVERSITY, priority 2021, published 2024).

How the values were obtained:
[1] = tested on: gastric cancer cells BGC-823; assay: scratch closure test; format: cell-based; settings: Homo sapiens, BGC823, 5 mg/L, 24 h, versus control group, read-out: inhibition rate of scratch closure
Method: (§1) Cells with a certain density (6×10^5 cells per mL for AGS, T47D, Caco2, BCPAP, GES, HUVEC; 5×10^5 cells per mL for HepG2, MDA-MB-231, BGC-823, A549, PC3, L02; 3×10^5 cells per mL for 143B, HOS, U2, SGC-7901, Hela, BV-2; and 1.8×10^6 cells per mL for WI-38) were spread on a 6-well plate (1 mL per well), added with a DMEM medium containing 10% fetal calf serum, and cultured overnight to form a monolayer of cells. A horizontal scratch was scratched on the monolayer of cells with a pipette tip of 200 μL, washed with PBS 3 times, added into a DMEM medium containing 10% fetal bovine serum, and then added with corresponding dosages of a quercetin 3,3′-dimethyl ether solution (the dosage of osteosarcoma cells was 143B: 4 mg/L, HOS: 4 mg/L, U2: 10 mg/L; the dosage of breast cancer cells was MDA-MB-231: 2 mg/L, T47D: 3 mg/L; the dosage of gastric cancer cells was SGC7901: 6 mg/L, BGC823: 5 mg/L, AGS: 3 mg/L; the dosage of cervical cancer Hela cells was 2 mg/L; the dosage of lung cancer cell A549 was 3 mg/L; the dosage of intestinal cancer cells Caco2 was 4 mg/L; the dosage of mouse glioma BV2 was 4 mg/L; the dosage of human prostate cancer cells PC3 was 6 mg/L; and the dosage of human thyroid cancer cells BCPAP was 2 mg/L), while DMSO was used as a solvent control, and then incubated for 24 h. A scratch width and a measurement width were determined under a microscope, and a scratch closure ratio was calculated as follows: scratch closure ratio=(scratch width−measurement width)/scratch width×100%. Scratch inhibition ratio=(scratch closure ratio of control group−scratch closure ratio of treatment group)/scratch closure ratio of control group×100%.

lung cancer cell A549 = assay: scratch closure test; format: cell-based; settings: Homo sapiens, 3 mg/L, 24 h, versus control group, read-out: inhibition rate of scratch closure
Method: as §1

gastric cancer cells AGS = assay: scratch closure test; format: cell-based; settings: 3 mg/L, 24 h
Method: as §1

mouse glioma BV2 = assay: scratch closure test; format: cell-based; settings: 4 mg/L, 24 h
Method: as §1

[2] = tested on: gastric cancer cells SGC-7901; assay: scratch closure test; format: cell-based; settings: 24 h
Method: as §1

[3] = tested on: human prostate cancer cells PC3; assay: scratch closure test; format: cell-based; settings: 6 mg/L, 24 h
Method: as §1

breast cancer cells T47D = assay: scratch closure test; format: cell-based; settings: 3 mg/L, 24 h
Method: as §1

[4] = tested on: intestinal cancer cells Caco2; assay: scratch closure test; format: cell-based; settings: 24 h
Method: as §1

[5] = tested on: human thyroid cancer cells BCPAP; assay: scratch closure test; format: cell-based; settings: 2 mg/L, 24 h
Method: as §1

[6] = tested on: cervical cancer Hela cells; assay: scratch closure test; format: cell-based; settings: 2 mg/L, 24 h
Method: as §1

osteosarcoma cells 143B = assay: scratch closure test; format: cell-based; settings: Homo sapiens, 4 mg/L, 24 h, versus control group, read-out: inhibition rate of scratch closure
Method: as §1

osteosarcoma cells U2 = assay: scratch closure test; format: cell-based; settings: 10 mg/L, 24 h
Method: as §1

[7] = tested on: breast cancer cells MDA-MB-231; assay: scratch closure test; format: cell-based; settings: 2 mg/L, 24 h
Method: as §1

osteosarcoma cells HOS = assay: scratch closure test; format: cell-based; settings: 4 mg/L, 24 h, versus control group, read-out: inhibition rate of scratch closure
Method: as §1

[8] = tested on: HepG2 transplanted tumors; assay: proliferation of HepG2 transplanted tumors in nude mice in vivo; set-up: species or system BALB/c nude mice; settings: 50 mg/kg bw·d intraperitoneal
Method: BALB/c nude mice (5 to 6 weeks old), weighing 19 g to 22 g, were purchased from Shanghai Experimental Animal Center, Chinese Academy of Sciences. HepG2 cells were collected in a serum-free DMEM medium to make a cell suspension, and then the cell suspension was injected into an underarm area of each mouse, approximately 2.0×10^6 cells, one site per mouse. All mice were bred in the Experimental Animal Center of Zhejiang University, under the environment of 23° C. to 25° C., humidity 50% to 60%, and cycle of 12 h light illumination/dark 12 h. After tumor formation, the mice were randomly divided into 3 groups with 7 mice in each group. The model group was given saline by intraperitoneal injection; the positive drug group was given tegafur at 10 mg/kg bw·d by intraperitoneal injection; the treatment group was intraperitoneally injected with the quercetin 3,3′-dimethyl ether at 50 mg/kg bw·d. According to the change of tumor volume, after the tumor formed, intraperitoneal injection was conducted every 1 d to 2 d, the tumor volume was measured, and the body weight of the mice was weighed. When there was a significant difference in tumor volume between different treatment groups, the mice were sacrificed by cervical dislocation, and the tumor tissue was carefully peeled off, weighed, and calculated. The formulas were: tumor formation rate (%)=(number of tumor-forming mice in treatment group/number of tumor-forming mice in inoculation group)×100; tumor inhibition rate (%)=(average tumor weight in control group (g)−average tumor weight in administration group (g))/average tumor weight in control group (g)×100. Serum, liver, spleen, and kidney were collected and weighed.

[9] = versus control group, read-out: inhibition rate of scratch closure
[10] = Homo sapiens, versus control group, read-out: inhibition rate of scratch closure

In the case of COc1cc(-c2oc3cc(O)cc(O)c3c(=O)c2OC)ccc1O [Quercetin 3,3′-dimethyl ether, quercetin 3,3′-dimethyl ether], the inhibition at 5 µg/mL [1] is reported as 73.7%, the inhibition at 3 µg/mL (lung cancer cell A549) is reported as 69.6% and the “Treatment scratch closed %” value (gastric cancer cells AGS) is reported as 31.67 ± 3.39 %. For the same compound, the inhibition at 3 µg/mL (gastric cancer cells AGS; [9]) was 60.9%, the “Treatment scratch closed %” value (mouse glioma BV2; BV-2) was 21.17 ± 8.55 % and the inhibition at 4 µg/mL (mouse glioma BV2; Mus musculus, BV2, versus control group, read-out: inhibition rate of scratch closure) was 75.2%. The “Treatment scratch closed %” value ([2]; 6 mg/L) was 25.05 ± 10.1 %, the inhibition at 6 µg/mL ([2]; Homo sapiens, SGC7901, 6 mg/L, versus control group, read-out: inhibition rate of scratch closure) was 72% and the “Treatment scratch closed %” value [3] was 24.76 ± 5.55 %. For the same compound, the inhibition at 6 µg/mL [3, 10] was 70.9%, the “Treatment scratch closed %” value (breast cancer cells T47D) was 31.83 ± 6.01 % and the inhibition at 3 µg/mL (breast cancer cells T47D; [10]) was 64.1%. For the same compound, the “Treatment scratch closed %” value ([4]; 4 mg/L) was 28.37 ± 10.21 %, the inhibition at 4 µg/mL ([4]; Homo sapiens, Caco-2, 4 mg/L, versus control group, read-out: inhibition rate of scratch closure) was 66.6% and the “Treatment scratch closed %” value [5] was 30.31 ± 5.21 %. The inhibition at 2 µg/mL [5, 10] was 64.7%, the “Treatment scratch closed %” value [6] was 37.42 ± 1.62 % and the inhibition at 2 µg/mL [6, 10] was 54%. The inhibition at 4 µg/mL (osteosarcoma cells 143B) was 54.3%, the “Treatment scratch closed %” value (osteosarcoma cells U2) was 27.67 ± 6.81 % and the inhibition at 10 µg/mL (osteosarcoma cells U2; [9]) was 70.5%. The “Treatment scratch closed %” value [7] was 16.72 ± 3.87 %, the inhibition at 2 µg/mL [7, 10] was 82% and the inhibition at 4 µg/mL (osteosarcoma cells HOS) was 57.6%. For the same compound, the “tumor weight, lower than that of the control group” value [8] was 52.19%, the tumor volume ([8]; day 24, 10 injections, HepG2 nude mice) was 284.19±85.47 mm^3 and the tumor weight ([8]; tumor peeled off at sacrifice) was 194.57 ± 75.45 mg.
